By pIC50 is commonly meant the IC50 on a negative log10 scale, so that one unit is a factor of ten.

The results in this text go back to ChEMBL document CHEMBL5579880, “Rational Design of a Novel 6H-Benzo[c]chromen Series as Selective PI3Kα Inhibitors” (J Med Chem, 2024).

In assay [1] the target is Phosphatidylinositol 4,5-bisphosphate 3-kinase catalytic subunit beta isoform (Homo sapiens, UniProt P42338). The assay can be described thus: Inhibition of PI3Kbeta (unknown origin) incubated for 60 mins in presence of ATP by ADP-Glo reagent assay. A general note: ADP-Glo turns the ADP formed in a reaction into a luminescent signal.
Chain of Phosphatidylinositol 4,5-bisphosphate 3-kinase catalytic subunit beta isoform (P42338 whole entry, canonical isoform): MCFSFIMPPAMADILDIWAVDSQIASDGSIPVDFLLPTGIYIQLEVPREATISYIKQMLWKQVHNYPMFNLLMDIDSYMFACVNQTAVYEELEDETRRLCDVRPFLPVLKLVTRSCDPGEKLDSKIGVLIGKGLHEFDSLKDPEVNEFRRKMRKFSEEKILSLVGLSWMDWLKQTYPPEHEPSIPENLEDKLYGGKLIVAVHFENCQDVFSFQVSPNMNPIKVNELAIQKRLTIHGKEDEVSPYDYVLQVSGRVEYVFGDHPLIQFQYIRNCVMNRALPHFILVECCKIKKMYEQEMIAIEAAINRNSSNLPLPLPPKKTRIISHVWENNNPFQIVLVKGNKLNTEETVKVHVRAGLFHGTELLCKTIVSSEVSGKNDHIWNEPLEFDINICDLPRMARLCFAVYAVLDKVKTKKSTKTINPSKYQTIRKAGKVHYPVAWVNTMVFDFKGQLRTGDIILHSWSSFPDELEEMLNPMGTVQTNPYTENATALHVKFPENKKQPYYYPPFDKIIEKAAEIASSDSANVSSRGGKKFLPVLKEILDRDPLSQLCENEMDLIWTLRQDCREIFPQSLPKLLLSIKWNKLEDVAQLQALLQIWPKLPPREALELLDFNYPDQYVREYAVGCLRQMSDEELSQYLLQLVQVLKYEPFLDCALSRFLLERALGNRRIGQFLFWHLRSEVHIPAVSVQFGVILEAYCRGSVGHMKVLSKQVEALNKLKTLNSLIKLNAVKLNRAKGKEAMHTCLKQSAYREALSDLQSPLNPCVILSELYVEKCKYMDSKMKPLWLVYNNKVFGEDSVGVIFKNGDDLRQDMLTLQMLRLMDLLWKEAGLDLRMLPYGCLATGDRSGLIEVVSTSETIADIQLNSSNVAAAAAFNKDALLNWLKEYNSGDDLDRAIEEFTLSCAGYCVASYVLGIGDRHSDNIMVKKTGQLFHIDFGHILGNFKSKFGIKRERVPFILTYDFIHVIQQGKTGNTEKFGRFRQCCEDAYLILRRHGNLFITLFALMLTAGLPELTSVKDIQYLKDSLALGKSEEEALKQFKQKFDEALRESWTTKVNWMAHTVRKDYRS
Assay [2] deals with T1, Phosphatidylinositol 4,5-bisphosphate 3-kinase catalytic subunit delta isoform (Homo sapiens, UniProt O00329).
T1 sequence (O00329 whole entry): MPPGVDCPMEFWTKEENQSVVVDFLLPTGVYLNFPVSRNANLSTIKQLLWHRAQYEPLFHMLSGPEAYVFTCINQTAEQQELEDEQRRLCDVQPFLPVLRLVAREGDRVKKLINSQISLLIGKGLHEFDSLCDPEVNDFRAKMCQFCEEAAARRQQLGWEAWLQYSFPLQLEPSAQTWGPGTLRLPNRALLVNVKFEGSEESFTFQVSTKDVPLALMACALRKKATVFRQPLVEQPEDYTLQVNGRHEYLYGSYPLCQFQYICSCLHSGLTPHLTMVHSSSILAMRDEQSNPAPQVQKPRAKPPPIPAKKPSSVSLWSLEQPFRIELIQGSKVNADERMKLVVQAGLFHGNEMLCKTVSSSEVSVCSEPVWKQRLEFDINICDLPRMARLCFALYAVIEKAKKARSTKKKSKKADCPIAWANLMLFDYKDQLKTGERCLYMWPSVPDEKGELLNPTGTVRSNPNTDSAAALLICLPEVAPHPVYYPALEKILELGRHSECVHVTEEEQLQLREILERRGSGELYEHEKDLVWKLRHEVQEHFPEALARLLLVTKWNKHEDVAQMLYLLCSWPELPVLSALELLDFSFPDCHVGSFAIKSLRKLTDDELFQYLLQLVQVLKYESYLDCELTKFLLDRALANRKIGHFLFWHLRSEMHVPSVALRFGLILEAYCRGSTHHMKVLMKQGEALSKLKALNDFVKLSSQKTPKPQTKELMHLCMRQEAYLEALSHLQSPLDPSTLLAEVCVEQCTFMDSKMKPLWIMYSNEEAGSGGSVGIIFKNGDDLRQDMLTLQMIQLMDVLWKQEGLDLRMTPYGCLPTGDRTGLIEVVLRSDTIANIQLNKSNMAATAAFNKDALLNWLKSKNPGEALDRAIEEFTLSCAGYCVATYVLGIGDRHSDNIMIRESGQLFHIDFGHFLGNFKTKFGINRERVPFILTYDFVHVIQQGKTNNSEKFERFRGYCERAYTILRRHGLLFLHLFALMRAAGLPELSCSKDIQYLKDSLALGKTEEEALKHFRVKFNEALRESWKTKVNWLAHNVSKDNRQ
Kind of assay: Inhibition of PI3Kdelta (unknown origin) incubated for 60 mins in presence of ATP by ADP-Glo reagent assay relative to control.

For assay [3], the target named is Phosphatidylinositol 4,5-bisphosphate 3-kinase catalytic subunit gamma isoform (Homo sapiens, UniProt P48736). Kind of assay: Inhibition of PI3Kgamma (unknown origin) incubated for 60 mins in presence of ATP by ADP-Glo reagent assay.
Chain of Phosphatidylinositol 4,5-bisphosphate 3-kinase catalytic subunit gamma isoform (P48736 whole entry, canonical isoform): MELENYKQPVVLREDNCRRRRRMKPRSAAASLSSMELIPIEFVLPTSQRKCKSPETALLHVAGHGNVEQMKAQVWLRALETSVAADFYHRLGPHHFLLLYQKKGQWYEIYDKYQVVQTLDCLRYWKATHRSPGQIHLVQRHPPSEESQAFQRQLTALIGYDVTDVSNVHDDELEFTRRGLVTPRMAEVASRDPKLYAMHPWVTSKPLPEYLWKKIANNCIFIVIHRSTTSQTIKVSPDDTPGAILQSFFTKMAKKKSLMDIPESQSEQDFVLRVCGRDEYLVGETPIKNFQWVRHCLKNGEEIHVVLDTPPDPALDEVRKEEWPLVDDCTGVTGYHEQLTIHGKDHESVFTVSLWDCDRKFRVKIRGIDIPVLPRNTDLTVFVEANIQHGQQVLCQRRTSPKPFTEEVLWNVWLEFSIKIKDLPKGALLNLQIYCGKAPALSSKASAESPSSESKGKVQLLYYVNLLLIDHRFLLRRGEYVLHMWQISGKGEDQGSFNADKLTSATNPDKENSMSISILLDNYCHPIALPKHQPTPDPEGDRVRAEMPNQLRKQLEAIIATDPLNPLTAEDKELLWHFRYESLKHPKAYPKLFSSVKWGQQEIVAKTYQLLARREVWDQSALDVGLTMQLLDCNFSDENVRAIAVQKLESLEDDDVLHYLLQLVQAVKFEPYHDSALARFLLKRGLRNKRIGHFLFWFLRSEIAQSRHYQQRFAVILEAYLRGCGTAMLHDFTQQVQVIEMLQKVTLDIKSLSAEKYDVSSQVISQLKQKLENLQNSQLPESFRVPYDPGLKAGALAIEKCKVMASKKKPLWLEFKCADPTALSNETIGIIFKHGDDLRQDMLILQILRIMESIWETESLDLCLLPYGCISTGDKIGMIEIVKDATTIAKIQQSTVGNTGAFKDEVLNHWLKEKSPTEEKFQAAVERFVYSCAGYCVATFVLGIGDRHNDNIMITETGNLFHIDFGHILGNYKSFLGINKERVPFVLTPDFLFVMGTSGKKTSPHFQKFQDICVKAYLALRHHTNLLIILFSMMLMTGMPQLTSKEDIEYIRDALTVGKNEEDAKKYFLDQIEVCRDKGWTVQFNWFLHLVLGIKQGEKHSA
For assay [4], the system named is MCF7. Kind of assay: Induction of apoptosis in human MCF7 cells assessed as necrotic cells at 10 uM incubated for 24 hrs by Annexin V-PE/7-AAD staining based flow cytometric analysis (Rvb= 0.4 %). Type of assay: functional. In general terms: Flow cytometry measures light scatter and fluorescence of single cells or particles in a stream.
The test system of assay [5] is MCF7. The assay can be described thus: cells. The settings on record: Homo sapiens, MCF7, 168 h.
Description: Antiproliferative activity against human MCF7 cells assessed as inhibition of cell growth incubated for 7 days by CCK8 assay
Assay [6] has as its system MCF7. The assay can be described thus: Induction of apoptosis in human MCF7 cells assessed as early apoptotic cells at […] incubated for 24 hrs by Annexin V-PE/7-AAD staining based flow cytometric analysis (Rvb= 1.3 %). Type of assay: functional. The settings on record: dose 1.1 µM.
Assay [7] has as its system MCF7. Kind of assay: Induction of apoptosis in human MCF7 cells assessed as necrotic cells at […] incubated for 24 hrs by Annexin V-PE/7-AAD staining based flow cytometric analysis (Rvb= 0.4 %). Type of assay: functional. The settings on record: dose 1.1 µM.
Assay [8] concerns MCF7. The assay can be described thus: Antitumor activity against human MCF7 cells xenografted in NCG mouse assessed as inhibition of tumor growth at 12.5 mg/kg,po administrated daily for 21 days relative to control. Type of assay: functional. As to conditions: MCF7, 504 h, time 21 day, read-out: TGI. Background: Xenograft models place foreign cells or tissue in a host animal.

Assay [9] concerns MCF7. The assay can be described thus: Induction of apoptosis in human MCF7 cells assessed as late apoptotic cells at […] incubated for 24 hrs by Annexin V-PE/7-AAD staining based flow cytometric analysis (Rvb= […]). It counts as functional. The settings on record: dose 1.1 µM.
Assay [10] has as its system MCF7. The assay can be described thus: Induction of apoptosis in human MCF7 cells assessed as necrotic cells at 3.3 uM incubated for 24 hrs by Annexin V-PE/7-AAD staining based flow cytometric analysis (Rvb= 0.4 %). Type of assay: functional.
The test system of assay [11] is MCF7. The assay can be described thus: Induction of apoptosis in human MCF7 cells assessed as late apoptotic cells at 10 uM incubated for 24 hrs by Annexin V-PE/7-AAD staining based flow cytometric analysis (Rvb= […]). Type of assay: functional.
Assay [12] has as its system MCF7. Kind of assay: Induction of apoptosis in human MCF7 cells assessed as early apoptotic cells at 10 uM incubated for 24 hrs by Annexin V-PE/7-AAD staining based flow cytometric analysis (Rvb= 1.3 %). It counts as functional.
For assay [13], the system named is MCF7. Kind of assay: cells. As to conditions: Homo sapiens, MCF7, 24 h, read-out: Activity.
Assay [14] has as its system MCF7. The assay can be described thus: Induction of apoptosis in human MCF7 cells assessed as late apoptotic cells at 3.3 uM incubated for 24 hrs by Annexin V-PE/7-AAD staining based flow cytometric analysis (Rvb= […]). It counts as functional.
Assay [15] deals with MCF7. Kind of assay: cells. The settings on record: Homo sapiens, MCF7, 24 h, read-out: Activity. The source holds these as a separate data set.
Assay [16] has as its system T47D. The assay can be described thus: cells. As to conditions: Homo sapiens, 168 h.
Description: Antiproliferative activity against human T47D cells assessed as inhibition of cell growth incubated for 7 days by CCK8 assay
For assay [17], the system named is MCF7. Kind of assay: cells. As to conditions: Homo sapiens, MCF7, 24 h, read-out: Activity. This is another data set of the same source.
Assay [18] has as its system MCF7. Kind of assay: Induction of apoptosis in human MCF7 cells assessed as early apoptotic cells at 3.3 uM incubated for 24 hrs by Annexin V-PE/7-AAD staining based flow cytometric analysis (Rvb= 1.3 %). Type of assay: functional.

SMILES strings stand for the structures. pIC50: −log10 of the molar value. Some results are limits rather than exact numbers.

Take `C[C@H](Oc1ccc2c(c1)OCc1ccc(-c3ccncc3)cc1-2)C(N)=O`: the pIC50 is 5.49 in assay [1], 6.45 in [2] and 6.03 in [3].

Regarding `Cc1nc(NC(=O)N2CCC[C@H]2C(N)=O)sc1-c1ccnc(C(C)(C)C(F)(F)F)c1` [ALPELISIB], the Activity in [4] is recorded as 33.6%; in assay [6] it was 2.2%; in assay [7], 10.3%; in assay [9], 12.5%; in [10] it was 16.3%; in [11] it was 15%. In addition, the Activity in assay [12] amounted to 2.9%; in [14], 16.1%; in [18] it was 3.9%. In addition, the figures for the pIC50 in assay [5] and in assay [16] were 6.22 and 6.40, respectively. In addition, the inhibition in vivo at 12.5 mg/kg in assay [8] was determined as 88%. In addition, in [13], the viability at 3.3 µM came out at 63.7%. In addition, in [15], the viability at 10 µM came out at 48.5%. The viability at […] in assay [17] stood at 75%.

On to `C[C@H](Oc1ccc2c(c1)OCc1ccc(-c3cc[nH]n3)cc1-2)C(N)=O`, for which the figures for the pIC50 in [1], in assay [2] and in assay [3] were 5.57, 6.36 and 5.89, respectively.

In the case of `C[C@H](Oc1ccc2c(c1)OCc1ccc(-c3ccccn3)cc1-2)C(N)=O`, the pIC50 is 4.86 in [5] and 5.09 in assay [16].

Regarding `C[C@H](Oc1ccc2c(c1)OCc1ccc(-c3ccncn3)cc1-2)C(N)=O`, in [2], the pIC50 is 6.15.

For the compound `C[C@H](Oc1ccc2c(c1)OCc1ccc(-c3ccn(C)n3)cc1-2)C(N)=O`, the pIC50 is 4.76 in [5] and 4.94 in assay [16].

Consider `CC(C)n1nccc1-c1ccc2c(c1)-c1ccc(O[C@@H](C)C(N)=O)cc1OC2`, for which the negative-log IC50 (pIC50) was 4.66 in assay [5] and 4.60 in assay [16].

`C[C@H](Oc1ccc2c(c1)OCc1ccc(-c3ncccn3)cc1-2)C(N)=O`: the negative-log IC50 (pIC50) was below 5.00 in assay [1], 5.94 in assay [2] and 5.15 in [3].

As for `C[C@H](Oc1ccc2c(c1)OCc1ccc(-c3ncnn3C)cc1-2)C(N)=O`, the pIC50 was 5.30 in assay [1], 6.03 in assay [2] and 5.30 in assay [3].

On to `C[C@H](Oc1ccc2c(c1)OCc1ccc(-c3cccnc3)cc1-2)C(N)=O`, for which the pIC50 in assay [5] is 4.83; in assay [16], 4.78.
